{"source": "patent US7592320B2", "about": "“Cancer gene therapy based on translational control of a suicide gene” (priority 2001, dated 2009)", "key": {"[1]": {"test_system": "MDA-435S", "conditions": "GCV 14 days"}, "[2]": {"test_system": "MM3MG", "assay": "cells", "conditions": "for EC50: Mus musculus, MM3MG, 336 h, GCV 14 days", "description": "(§1) Each vector was then stably transfected into either MM3MG cells (ATCC No.CRL6376, a normal mouse mammary line) or MM2MT cells (ATCC No. CRL6373, a mouse mammary carcinoma line). Unless otherwise stated, all cell lines were purchased from the American Type Culture Collection (“ATCC”), Manassas, Va. To overexpress eIF4E (referred to as eIF4E-S, for “sense”), the eIF4E cDNA was cloned into KpnI and NotI sites of the pREP7 episomal vector (Invitrogen, Carlsbad, Calif.). To reduce the eIF4E expression (referred to as eIF4E-AS, for “antisense”), an antisense eIF4E construct was subcloned into the pREP7 vector as described in A. De Benedetti et al., “Expression of antisense RNA against initiation factor eIF-4E mRNA in HeLa cells results in lengthened cell division times, diminished translation rates, and reduced levels of both eIF-4E and the P220 component of eIF-4F,” Mol. Cell. Biol., vol. 11, pp. 5435-5445 (1991).\n(§2) All transfections were performed with the GenePORTER reagent (Gene Therapy Systems, San Diego, Calif.). Stable cell lines were obtained by selection with G418 for the BK constructs, and Hygromycin B for the pREP7 vectors."}, "[3]": {"test_system": "MM2MT", "assay": "cells", "conditions": "Mus musculus, 336 h, GCV 14 days", "description": "as §1, §2"}, "[4]": {"test_system": "MDA-231", "conditions": "for ED50: GCV 14 days"}, "[5]": {"test_system": "MCF-10A", "conditions": "GCV 14 days"}, "[6]": {"test_system": "MM2MT tumors", "assay": "Tumor ablation, MM2MT mammary fat pad tumors (about 40 mm^3) in athymic mice", "type": "in vivo, BALB/c athymic nu/nu mice", "conditions": "GCV administered alone (data not shown)", "description": "10^6 MM2MT cells were suspended in 0.1 ml serum and antibiotic-free DMEM medium and injected subcutaneously into the mammary fat pad. Tumor latency was determined as the time necessary for the tumors to grow to 0.5 cm (largest diameter). Tumor doubling times were determined by daily measuring the smallest (d) and the largest (D) diameters with calipers, and estimating the volume using the formula, V=D×d^2×0.52. The reported numbers are the mean and standard deviation of the tumor volumes for each group.\nWhen the tumor volumes were approximately 40 mm^3, the mice were randomly separated into two groups, and either the BK-TK or the BK-UTK vectors were injected as a liposomal complex near the tumor. To make the liposomal complex for transfection of primary tumors, 10 μg of endotoxin-free purified (QIAGEN, Inc., Valencia, Calif.) plasmid DNA was diluted in 50 μl medium without serum or antibiotics. In a separate tube, 50 μl of GenePORTER reagent (Gene Therapy Systems, San Diego, Calif.) was mixed with 50 μl serum and antibiotic-free medium. The two tubes were then combined, briefly vortexed, and allowed to incubate at room temperature for 20 minutes, after which the resulting liposome complex was injected between the tumor and the skin of the mouse.\nOne of the 6 mice in each group had no palpable tumor remaining at the end of the 10-day treatment."}, "[7]": {"test_system": "MCF7", "conditions": "GCV 14 days"}}, "note": "Where two headings read alike, the source gives them in different places."}
{"smiles": "Nc1nc(O)c2ncn(COC(CO)CO)c2n1", "note": "[GCV, Ganciclovir]", "values": [{"measurement": "ED50", "setting": "[1]; MDA-435S untransfected cells", "result": 350, "unit": "µM"}, {"measurement": "ED50", "setting": "[1]; MDA-435S-TK cells", "result": 15, "unit": "µM"}, {"measurement": "ED50", "setting": "[1]; MDA-435S-UTK cells", "result": 15, "unit": "µM"}, {"measurement": "GCV concentration to which cells were sensitive (dose-response curve)", "setting": "[2]; MM3MG-TK (normal) cells, 14 days", "result": 0.1, "unit": "µM"}, {"measurement": "EC50", "setting": "[2]; read-out: ED50, MM3MG untransfected cells, concentration that kills 50% of the cells", "result": 200, "unit": "µM"}, {"measurement": "EC50", "setting": "[2]; read-out: ED50, MM3MG-TK cells", "result": 0.3, "unit": "µM"}, {"measurement": "EC50", "setting": "[2]; read-out: ED50, MM3MG-UTK cells", "result": 75, "unit": "µM"}, {"measurement": "EC50", "setting": "[2]; read-out: ED50, MM3MG-UTK/4E-AS cells (so in the source)", "result": 0.9, "unit": "µM"}, {"measurement": "GCV concentration at which cells were non-specifically inhibited", "setting": "[2]; untransfected MM3MG cells, 14 days", "result": 200, "unit": "µM"}, {"measurement": "EC50", "setting": "[3]; read-out: ED50, MM2MT untransfected cells", "result": 95, "unit": "µM"}, {"measurement": "EC50", "setting": "[3]; read-out: ED50, MM2MT-TK cells", "result": 0.095, "unit": "µM"}, {"measurement": "EC50", "setting": "[3]; read-out: ED50, MM2MT-TK/4E-AS cells", "result": 0.15, "unit": "µM"}, {"measurement": "EC50", "setting": "[3]; read-out: ED50, MM2MT-UTK cells", "result": 0.5, "unit": "µM"}, {"measurement": "EC50", "setting": "[3]; read-out: ED50, MM2MT-UTK/4E-AS cells", "result": 55, "unit": "µM"}, {"measurement": "GCV concentration of non-specific toxicity", "setting": "[4]; MDA-231-TK and MDA-231-UTK cells, otherwise insensitive to GCV", "result": 5, "unit": "mM"}, {"measurement": "ED50", "setting": "[4]; MDA-231-TK cells", "result": 4000, "unit": "µM"}, {"measurement": "ED50", "setting": "[4]; MDA-231-UTK cells", "result": 4000, "unit": "µM"}, {"measurement": "ED50", "setting": "[4]; MDA-231 untransfected cells", "result": 6000, "unit": "µM"}, {"measurement": "ED50", "setting": "[5]; MCF-10A untransfected cells", "result": 6000, "unit": "µM"}, {"measurement": "ED50", "setting": "[5]; MCF-10A-TK cells", "result": 300, "unit": "µM"}, {"measurement": "ED50", "setting": "[5]; MCF-10A-UTK cells", "result": 5500, "unit": "µM"}, {"measurement": "effect on the growth of MM2MT tumors", "setting": "[6]", "result": "no effect"}, {"measurement": "ED50", "setting": "[7]; MCF7-TK cells", "result": 20, "unit": "µM"}, {"measurement": "ED50", "setting": "[7]; MCF7-UTK cells", "result": 10, "unit": "µM"}, {"measurement": "ED50", "setting": "[7]; MCF7 untransfected cells", "result": 6000, "unit": "µM"}]}
